Experimental data from US20200206198A1, “CFTR CHANNEL ACTIVATOR FOR USE IN THE TREATMENT AND/OR PREVENTION OF GLUTEN SENSITIVITY CONDITIONS” (priority 2017, published 2020).

What was measured:
Caco-2 cells = assay: P31-43-induced epithelial stress markers in Caco-2 cells (immunoblot); assay type: cell-based, human
Procedure: Human colon adenocarcinoma-derived Caco-2 and T84 cells were obtained from the ATCC. Cells were maintained in T25 flask in Modified Eagle Medium (MEM) for Caco-2, or Ham's F12+DMEM (1:1) for T84, supplemented with 10% fetal bovine serum (FBS), 2 mM Glutamine+1% Non Essential Amino Acids (NEAA) and the antibiotics penicillin\streptomycin (100 units/ml) (all reagents from Lonza) (Luciani, A., et al. 2010. Cells were grown in Transwells (Corning, 3470 or 3460) under the normal condition (Luciani, A., et al. 2012). Briefly, 8×10^4 or 5×10^5 cells were seeded in 6.5-mm diameter or 12-mm diameter, respectively, and grown until the RT reached 800 to 1,200 Ω·cm2. Transwells with a pore size of 0.4 μm were used. Medium in both the apical and basolateral chambers was changed every other day. Cells were treated with 20 μg/ml of either α-gliadin peptide P31-43 or […]-69 or scrambled PGAV or modified P31-43 either biotin-tagged or not, for different time point (from 1 h short challenge up to 24 h). Cells were also treated with 50 or 100 μg/ml of […]-68 or PGAV peptides for 3 h. Caco-2 or T84 cells were also treated with: CFTR potentiators VX-770 (10 μM) or VX-532 (20 μM) (Selleck chemicals) or Genistein (10 μM) (Sigma-Aldrich) or in presence or absence of CFTR inhibitor172 (CFTRinh172, 20 μM) or 3-methyl-adenine (3-MA, 20 μM) (Calbiochem), Z-DON (20 nM, Zedira) or BAPTA-AM (10 μM, Calbiochem). The whole lysate or membrane fraction proteins of cell lines and mice intestine homogenates were obtained from treated and untreated cells or mice as described. The equal amount of protein were resolved by SDS-PAGE gel and blotted with antibodies against: SQSTM1, (Sigma Aldrich, 108k4767) 1:1000, PPARγ (Santa Cruz Biotechnology, sc7273) 1:500, BECN1 (Abcam, ab58878) 1:1000, CFTR clone M3A7 (Abcam, ab4067) 1:500, phospho-ERK1/2 (php42/44, Cell Signaling Technology, #91101) 1:1000, UVRAG (Santa Cruz Biotechnology sc8215) 1:1000, NHERF-1 (BD, 611161) 1:1000, EZRIN (BD, 610603) 1:1000, hVps34 (SigmaV9764) 1:300, biotin (Abcam, ab1227) 1:2000, PKAr2a (BD, 610625) 1:500, Ubiquitin (Cell Signaling clone P4D1, #3936) 1:1000, CHIP (Calbiochem PC711) 1:500, Caspase-1 p10 (M-20) (Santa Cruz Biotechnology, sc-514) 1:200, NLRP3 (Abcam, ab4207), 1:500, IDO1 (monoclonal; cv152) 1:1000^[80], used as primary antibodies. Normalization was performed by probing the membrane with anti-β-actin (Cell Signaling, #4970) 1:1000, anti-Gapdh (Sigma-Aldrich, G8795) 1:1000 and anti-flottilin (Abcam ab15148) 1:1000 antibodies. Immunoprecipitations of endogenous proteins were performed on 500 μg of lysates from Caco-2 cells. The proteins were incubated for 12-18 h at 4° C. with 10 ug\ml of specific antibody followed by the addition of Protein A/G-agarose beads for 4 h at 4° C. The beads were then washed three times with lysis buffer and Laemmli's sample buffer was added to the samples. The membranes were then blotted with: CFTR clone CF3 (Abcam, ab2784) 1:1000, TG2 (clone CUB7402; NeoMarkers) 1:1000, CHIP (Calbiochem PC711) 1:500, Ubiquitin (Cell Signaling clone P4D1 3936), isopeptide (Abcam 422) 1:1000, PKAR2 (BD 610625) 1:500. FIG. 5: a, Immunoprecipitation of TG2 protein 15 in Caco-2 cells challenged with […]-68, PGAV or P31-43 and blotted with HRP-streptavidin. b, Immunoprecipitation of CFTR protein in Caco-2 cells challenged with P31-43 in the presence of absence of the TG2 inhibitor ZDON or TG2 RNA silencing and 20 blotted with anti-isopeptide glutamime-lysine and anti-TG2 antibodies. c, Recombinant TG2 and/or NBD1 incubated in vitro with P31-43 and solved in native page in the presence or absence of Ca2+. d, Immunoprecipitation of CFTR protein and immunblot with anti-CFTR antibodies or anti-TG2 antibodies. e, Immunoprecipitation of CFTR protein and immunoblot with anti-TG2 or anti-CFTR antibodies; effects of ZDON and BAPTA-AM. f, In situ detection of TG2 activity in Caco-2 cells pulsed with Ca2+ in the presence or absence of VX-770 or Z-DON. […]

CFTR = target: T1, CFTR (Homo sapiens, UniProt P13569); assay: Co-immunoprecipitation of biotinylated peptides with CFTR in Caco-2 cells; assay type: cell-based
T1 construct: Immunoprecipitations of endogenous proteins were performed on 500 μg of lysates from Caco-2 cells; host or cells: Caco-2, T84
T1 sequence (P13569 whole entry): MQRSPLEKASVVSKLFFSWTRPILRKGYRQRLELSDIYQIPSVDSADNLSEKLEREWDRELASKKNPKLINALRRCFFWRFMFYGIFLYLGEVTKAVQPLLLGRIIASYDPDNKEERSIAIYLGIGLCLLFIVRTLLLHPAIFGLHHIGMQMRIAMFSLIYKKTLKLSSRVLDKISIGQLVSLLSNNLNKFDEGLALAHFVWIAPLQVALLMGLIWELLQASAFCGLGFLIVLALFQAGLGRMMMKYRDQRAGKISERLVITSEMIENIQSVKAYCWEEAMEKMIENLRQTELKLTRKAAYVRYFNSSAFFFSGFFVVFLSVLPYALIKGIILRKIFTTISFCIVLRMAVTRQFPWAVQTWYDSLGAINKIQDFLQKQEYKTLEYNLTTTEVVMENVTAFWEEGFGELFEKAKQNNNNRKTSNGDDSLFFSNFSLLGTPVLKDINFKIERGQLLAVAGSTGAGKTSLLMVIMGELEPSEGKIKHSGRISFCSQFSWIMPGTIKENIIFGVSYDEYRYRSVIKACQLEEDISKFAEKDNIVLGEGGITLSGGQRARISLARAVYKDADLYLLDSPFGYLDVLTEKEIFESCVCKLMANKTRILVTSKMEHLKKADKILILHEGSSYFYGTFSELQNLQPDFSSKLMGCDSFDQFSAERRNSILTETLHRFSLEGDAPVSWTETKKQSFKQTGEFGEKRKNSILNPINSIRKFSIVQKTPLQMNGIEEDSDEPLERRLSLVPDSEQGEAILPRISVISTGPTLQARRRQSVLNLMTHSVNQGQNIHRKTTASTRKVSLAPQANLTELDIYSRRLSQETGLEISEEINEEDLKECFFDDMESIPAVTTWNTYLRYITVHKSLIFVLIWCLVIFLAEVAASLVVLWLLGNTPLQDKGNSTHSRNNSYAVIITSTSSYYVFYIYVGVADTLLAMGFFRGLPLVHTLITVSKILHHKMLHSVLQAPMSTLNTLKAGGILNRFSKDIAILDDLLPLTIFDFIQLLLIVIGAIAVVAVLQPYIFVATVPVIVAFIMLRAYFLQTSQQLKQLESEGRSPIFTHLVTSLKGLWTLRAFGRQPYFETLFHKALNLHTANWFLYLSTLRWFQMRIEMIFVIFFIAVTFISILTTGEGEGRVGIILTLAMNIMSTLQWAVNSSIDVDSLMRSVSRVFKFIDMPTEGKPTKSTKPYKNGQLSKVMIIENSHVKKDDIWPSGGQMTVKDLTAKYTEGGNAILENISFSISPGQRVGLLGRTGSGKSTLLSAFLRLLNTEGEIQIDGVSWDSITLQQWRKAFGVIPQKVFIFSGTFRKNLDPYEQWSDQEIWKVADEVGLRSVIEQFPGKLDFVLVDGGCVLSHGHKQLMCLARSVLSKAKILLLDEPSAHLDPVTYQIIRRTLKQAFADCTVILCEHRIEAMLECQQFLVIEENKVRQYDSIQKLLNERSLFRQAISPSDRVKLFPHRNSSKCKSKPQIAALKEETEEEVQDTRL
Procedure: Human colon adenocarcinoma-derived Caco-2 and T84 cells were obtained from the ATCC. Cells were maintained in T25 flask in Modified Eagle Medium (MEM) for Caco-2, or Ham's F12+DMEM (1:1) for T84, supplemented with 10% fetal bovine serum (FBS), 2 mM Glutamine+1% Non Essential Amino Acids (NEAA) and the antibiotics penicillin\streptomycin (100 units/ml) (all reagents from Lonza) (Luciani, A., et al. 2010. Cells were grown in Transwells (Corning, 3470 or 3460) under the normal condition (Luciani, A., et al. 2012). Briefly, 8×10^4 or 5×10^5 cells were seeded in 6.5-mm diameter or 12-mm diameter, respectively, and grown until the RT reached 800 to 1,200 Ω·cm2. Transwells with a pore size of 0.4 μm were used. Medium in both the apical and basolateral chambers was changed every other day. […] Cells were also treated with 50 or 100 μg/ml of P57-68 or PGAV peptides for 3 h. Caco-2 or T84 cells were also treated with: CFTR potentiators VX-770 (10 μM) or VX-532 (20 μM) (Selleck chemicals) or Genistein (10 μM) (Sigma-Aldrich) or in presence or absence of CFTR inhibitor172 (CFTRinh172, 20 μM) or 3-methyl-adenine (3-MA, 20 μM) (Calbiochem), Z-DON (20 nM, Zedira) or BAPTA-AM (10 μM, Calbiochem).
For detection of complex with biotnylated-P31-43 or immune-complex of glutamime-lysine bonds, the beads were resolved in non-reducing and non-denaturating conditions, and then blotted with Streptavidin-HRP (Sigma 52438) 1:3000 or anti-biotin (Abcam ab2103) 1:2500 and anti-isopeptide (Abcam 422) 1:1000.
The separation of endosomal fractions was performed as described^9 from treated and untreated cells. Protein of endosomal fraction were resolved by SDS-Page and blotted with primary antibodies against Rab-5(Abcam 18211) 1:500, Rab-7(Abcam 77993) 1:500, EEA-1 (Abcam 2900) 1:500, TG2 or CFTR. EEA-1 was used as early endosome marker. For detection of complex with biotnylated-P31-43, the beads were resolved in non-reducing and non-denaturating conditions, and then blotted with Streptavidin-HRP (Sigma S2438) 1:3000 or anti-biotin (Abcam ab2103) 1:2500.

| Compound | TG2-mediated cross-linking of PKAr2a (Caco-2 cells) | abundance of phosphorylated PKA protein (Caco-2 cells) | presence in CFTR immunoprecipitates from early endosomal protein fractions (CFTR) | interaction (co-immunoprecipitation) with CFTR (CFTR; 1 h with biotinylated peptides) | co-immunoprecipitation with CFTR in clathrin+ EEA1− plasma membrane protein fractions (CFTR; after 5 min incubation) | effect on P31-43-induced PKAr2a cross-linking and phospho-PKA decrease (Caco-2 cells) | protection from P31-43-induced downregulation of PPARγ (Caco-2 cells) | protection from P31-43-induced phosphorylation of ERK-1/2 (Caco-2 cells) | protection from P31-43-induced upregulation of HSP70 expression (Caco-2 cells) | effect on co-immunoprecipitation between P31-43 and CFTR (CFTR) |
| --- | --- | --- | --- | --- | --- | --- | --- | --- | --- | --- |
| α-gliadin peptide LGQQQPFPPQQPY (SEQ ID 1), induces an enterocyte stress response (P31-43 sequence of alpha-gliadin) | stimulated TG2-mediated cross-linking | decrease in the abundance of phosphorylated PKA protein | revealed the presence of biotinylated P31-43 | co-immunoprecipitated with CFTR | co-immunoprecipitated |  |  |  |  |  |
| CC(C)(C)c1cc(C(C)(C)C)c(NC(=O)c2c[nH]c3ccccc3c2=O)cc1O [VX-770, N-(2,4-di-tert-butyl-5-hydroxyphenyl)-4-oxo-1,4-dihydroquinoline-3-carboxamide] |  |  |  |  |  | counteracted all these TG2-mediated effects of P31-43 | protected | protected | protected | prevented the co-immunoprecipitation between P31-43 and CFTR |
